Source: patent US8343983B2, “Substituted pyrazolo-pyrimidine compounds” (ArQule, Inc., priority 2009, dated 2013)
Like-named read-outs stand apart in the source and are kept apart here.

Test system: cancer cells
Assay: MTS assay: inhibition of cell growth (formazan absorbance at 492 nm after 72 hours with test compound)
Assay type: cell-based
Details: inhibition class
Procedure, shortened: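 DMEM with 1% FBS; cells seeded at 3000/well and grown 18 h at 37 °C, then exposed to compound for 72 h and to MTS/PMS for 4 h. IC50 is the concentration giving a 50% absorbance drop; grades are % inhibition bands.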

[1] = Homo sapiens, DLD-1 cells, read-out: DLD-1, MTS 72 hours at 10 uM
[2] = Homo sapiens, KATO III cells, read-out: KATO III, MTS 72 hours at 10 uM
[3] = Homo sapiens, MDA-MB-231 cells, read-out: MDA-MB-231, MTS 72 hours at 10 uM
[4] = Homo sapiens, NCI-H1299 cells, read-out: NCI-H1299, MTS 72 hours at 10 uM
[5] = Homo sapiens, PC-3 cells, read-out: PC-3, MTS 72 hours at 10 uM
[6] = PACA-2 cells, read-out: PACA-2, MTS 72 hours at 10 uM

Work on `c1ccc(CN2CCc3n[nH]c4nc(NCCc5ccccn5)nc2c34)cc1` [Compound 65, 6-benzyl-N-(2-pyridin-2-ylethyl)-2,6,7,8-tetrahydro-1,2,3,5,6-pentaazaacenaphthylen-4-amine] yielded an inhibition at 10 µM [1] of under 50%, an inhibition at 10 µM [2] of under 50% and an inhibition at 10 µM [3] of under 50%. For the same compound, the inhibition at 10 µM [4] was under 50%, the inhibition at 10 µM [5] was under 50% and the inhibition at 10 µM [6] was under 50%.
Work on `c1ccc(CN2CCc3n[nH]c4nc(NCCc5ccc(-c6ccccc6)cc5)nc2c34)cc1` [Compound 66, 6-benzyl-N-(2-biphenyl-4-ylethyl)-2,6,7,8-tetrahydro-1,2,3,5,6-pentaazaacenaphthylen-4-amine] yielded an inhibition at 10 µM [1] of 50 to 79%, an inhibition at 10 µM [2] of under 50% and an inhibition at 10 µM [3] of under 50%. It also gave an inhibition at 10 µM [4] of under 50%, an inhibition at 10 µM [5] of under 50% and an inhibition at 10 µM [6] of 50 to 79%.
Compound `c1ccc(CN2CCc3n[nH]c4nc(NCC5CCCCCC5)nc2c34)cc1` [Compound 67, 6-benzyl-N-(cycloheptylmethyl)-2,6,7,8-tetrahydro-1,2,3,5,6-pentaazaacenaphthylen-4-amine] has an inhibition at 10 µM [1] of under 50%, an inhibition at 10 µM [2] of under 50% and an inhibition at 10 µM [3] of under 50%. The inhibition at 10 µM [4] was 50 to 79%, the inhibition at 10 µM [5] was under 50% and the inhibition at 10 µM [6] was 50 to 79%.
`CC(=O)NCCNc1nc2c3c(n[nH]c3n1)CCN2Cc1ccccc1` [Compound 68, N-{2-[(6-benzyl-2,6,7,8-tetrahydro-1,2,3,5,6-pentaazaacenaphthylen-4-yl)amino]ethyl}acetamide] showed an inhibition at 10 µM [1] of under 50%, an inhibition at 10 µM [2] of under 50% and an inhibition at 10 µM [3] of under 50%. It also gave an inhibition at 10 µM [4] of under 50%, an inhibition at 10 µM [5] of under 50% and an inhibition at 10 µM [6] of under 50%.
With `CC(O)CNc1nc2c3c(n[nH]c3n1)CCN2Cc1ccccc1` (stereo not drawn) [Compound 69, 1-[(6-benzyl-2,6,7,8-tetrahydro-1,2,3,5,6-pentaazaacenaphthylen-4-yl)amino]propan-2-ol] the inhibition at 10 µM [1] was under 50%, the inhibition at 10 µM [2] was under 50% and the inhibition at 10 µM [3] was under 50%. For the same compound, the inhibition at 10 µM [4] was under 50%, the inhibition at 10 µM [5] was under 50% and the inhibition at 10 µM [6] was under 50%.
`Clc1ccc(CCNc2nc3c4c(n[nH]c4n2)CCN3Cc2ccccc2)cc1Cl` [Compound 70, 6-benzyl-N-[2-(3,4-dichlorophenyl)ethyl]-2,6,7,8-tetrahydro-1,2,3,5,6-pentaazaacenaphthylen-4-amine] gave an inhibition at 10 µM [1] of over 79%, an inhibition at 10 µM [2] of over 79% and an inhibition at 10 µM [3] of over 79%. The inhibition at 10 µM [4] was over 79%, the inhibition at 10 µM [5] was under 50% and the inhibition at 10 µM [6] was over 79%.
In the case of `c1ccc(CN2CCc3n[nH]c4nc(NCc5cccc(-c6ccccc6)c5)nc2c34)cc1` [Compound 71, 6-benzyl-N-(biphenyl-3-ylmethyl)-2,6,7,8-tetrahydro-1,2,3,5,6-pentaazaacenaphthylen-4-amine], the inhibition at 10 µM [1] is reported as 50 to 79%, the inhibition at 10 µM [2] is reported as 50 to 79% and the inhibition at 10 µM [3] is reported as 50 to 79%. The inhibition at 10 µM [4] was 50 to 79%, the inhibition at 10 µM [5] was under 50% and the inhibition at 10 µM [6] was 50 to 79%.
`O[C@H](CNc1nc2c3c(n[nH]c3n1)CCN2Cc1ccccc1)c1ccccc1` [Compound 72, (1S)-2-[(6-benzyl-2,6,7,8-tetrahydro-1,2,3,5,6-pentaazaacenaphthylen-4-yl)amino]-1-phenylethanol] was tested, and the inhibition at 10 µM [1] was under 50%, the inhibition at 10 µM [2] was under 50% and the inhibition at 10 µM [3] was under 50%. It also gave an inhibition at 10 µM [4] of under 50%, an inhibition at 10 µM [5] of under 50% and an inhibition at 10 µM [6] of under 50%.
Compound `Cc1cccc2c(CCNc3nc4c5c(n[nH]c5n3)CCN4Cc3ccccc3)c[nH]c12` [Compound 73, 6-benzyl-N-[2-(7-methyl-1H-indol-3-yl)ethyl]-2,6,7,8-tetrahydro-1,2,3,5,6-pentaazaacenaphthylen-4-amine] has an inhibition at 10 µM [1] of over 79%, an inhibition at 10 µM [2] of over 79% and an inhibition at 10 µM [3] of 50 to 79%. For the same compound, the inhibition at 10 µM [4] was over 79%, the inhibition at 10 µM [5] was under 50% and the inhibition at 10 µM [6] was 50 to 79%.
In the case of `c1ccc(CN2CCc3n[nH]c4nc(N5CCN(CCc6ccncc6)CC5)nc2c34)cc1` [Compound 74, 6-benzyl-4-[4-(2-pyridin-4-ylethyl)piperazin-1-yl]-2,6,7,8-tetrahydro-1,2,3,5,6-pentaazaacenaphthylene], the inhibition at 10 µM [1] is reported as under 50%, the inhibition at 10 µM [2] is reported as under 50% and the inhibition at 10 µM [3] is reported as under 50%. It also gave an inhibition at 10 µM [4] of under 50%, an inhibition at 10 µM [5] of under 50% and an inhibition at 10 µM [6] of under 50%.
`OCCN1CCN(c2nc3c4c(n[nH]c4n2)CCN3Cc2ccccc2)CC1` [Compound 75, 2-[4-(6-benzyl-2,6,7,8-tetrahydro-1,2,3,5,6-pentaazaacenaphthylen-4-yl)piperazin-1-yl]ethanol] gave an inhibition at 10 µM [1] of under 50%, an inhibition at 10 µM [2] of under 50% and an inhibition at 10 µM [3] of under 50%. The inhibition at 10 µM [4] was under 50%, the inhibition at 10 µM [5] was under 50% and the inhibition at 10 µM [6] was under 50%.
`c1ccc(CN2CCc3n[nH]c4nc(N5CCCCC5)nc2c34)cc1` [Compound 76, 6-benzyl-4-piperidin-1-yl-2,6,7,8-tetrahydro-1,2,3,5,6-pentaazaacenaphthylene] showed an inhibition at 10 µM [1] of under 50%, an inhibition at 10 µM [2] of under 50% and an inhibition at 10 µM [3] of under 50%. For the same compound, the inhibition at 10 µM [4] was under 50%, the inhibition at 10 µM [5] was under 50% and the inhibition at 10 µM [6] was under 50%.
With `Cc1cccc(CCNc2nc3c4c(n[nH]c4n2)CCN3Cc2ccccc2)c1` [Compound 77, 6-benzyl-N-[2-(3-methylphenyl)ethyl]-2,6,7,8-tetrahydro-1,2,3,5,6-pentaazaacenaphthylen-4-amine] the inhibition at 10 µM [1] was under 50%, the inhibition at 10 µM [2] was under 50% and the inhibition at 10 µM [3] was under 50%. For the same compound, the inhibition at 10 µM [4] was 50 to 79%, the inhibition at 10 µM [5] was under 50% and the inhibition at 10 µM [6] was under 50%.
`COCC(C)Nc1nc2c3c(n[nH]c3n1)CCN2Cc1ccccc1` (stereo not drawn) [Compound 78, 6-benzyl-N-(2-methoxy-1-methylethyl)-2,6,7,8-tetrahydro-1,2,3,5,6-pentaazaacenaphthylen-4-amine] was tested, and the inhibition at 10 µM [1] was under 50%, the inhibition at 10 µM [2] was under 50% and the inhibition at 10 µM [3] was over 79%. The inhibition at 10 µM [4] was under 50%, the inhibition at 10 µM [5] was over 79% and the inhibition at 10 µM [6] was under 50%.
Compound `c1ccc(CN2CCc3n[nH]c4nc(NCc5ccc(-c6ccccc6)cc5)nc2c34)cc1` [Compound 79, 6-benzyl-N-(biphenyl-4-ylmethyl)-2,6,7,8-tetrahydro-1,2,3,5,6-pentaazaacenaphthylen-4-amine] has an inhibition at 10 µM [1] of over 79%, an inhibition at 10 µM [2] of 50 to 79% and an inhibition at 10 µM [3] of 50 to 79%. It also gave an inhibition at 10 µM [4] of over 79%, an inhibition at 10 µM [5] of under 50% and an inhibition at 10 µM [6] of under 50%.
In the case of `CN1CCN(c2nc3c4c(n[nH]c4n2)CCN3Cc2ccccc2)CC1` [Compound 80, 6-benzyl-4-(4-methylpiperazin-1-yl)-2,6,7,8-tetrahydro-1,2,3,5,6-pentaazaacenaphthylene], the inhibition at 10 µM [1] is reported as under 50%, the inhibition at 10 µM [2] is reported as under 50% and the inhibition at 10 µM [3] is reported as under 50%. The inhibition at 10 µM [4] was under 50%, the inhibition at 10 µM [5] was under 50% and the inhibition at 10 µM [6] was under 50%.
Work on `CN(CCc1ccccc1)c1nc2c3c(n[nH]c3n1)CCN2Cc1ccccc1` [Compound 81, 6-benzyl-N-methyl-N-(2-phenylethyl)-2,6,7,8-tetrahydro-1,2,3,5,6-pentaazaacenaphthylen-4-amine] yielded an inhibition at 10 µM [1] of under 50%, an inhibition at 10 µM [2] of under 50% and an inhibition at 10 µM [3] of under 50%. It also gave an inhibition at 10 µM [4] of under 50%, an inhibition at 10 µM [5] of under 50% and an inhibition at 10 µM [6] of under 50%.
In the case of `COc1cc(CNc2nc3c4c(n[nH]c4n2)CCN3Cc2ccccc2)cc(OC)c1` [Compound 82, 6-benzyl-N-(3,5-dimethoxybenzyl)-2,6,7,8-tetrahydro-1,2,3,5,6-pentaazaacenaphthylen-4-amine], the inhibition at 10 µM [1] is reported as under 50%, the inhibition at 10 µM [2] is reported as under 50% and the inhibition at 10 µM [3] is reported as under 50%. For the same compound, the inhibition at 10 µM [4] was under 50%, the inhibition at 10 µM [5] was under 50% and the inhibition at 10 µM [6] was under 50%.
In the case of `O=C(CN1CCN(c2nc3c4c(n[nH]c4n2)CCN3Cc2ccccc2)CC1)N1CCCC1` [Compound 83, 6-benzyl-4-[4-(2-oxo-2-pyrrolidin-1-ylethyl)piperazin-1-yl]-2,6,7,8-tetrahydro-1,2,3,5,6-pentaazaacenaphthylene], the inhibition at 10 µM [1] is reported as under 50%, the inhibition at 10 µM [2] is reported as under 50% and the inhibition at 10 µM [3] is reported as under 50%. It also gave an inhibition at 10 µM [4] of under 50%, an inhibition at 10 µM [5] of under 50% and an inhibition at 10 µM [6] of under 50%.
For `CCCCNc1nc2c3c(n[nH]c3n1)CCN2Cc1ccccc1` [Compound 84, 6-benzyl-N-butyl-2,6,7,8-tetrahydro-1,2,3,5,6-pentaazaacenaphthylen-4-amine], the inhibition at 10 µM [1] was over 79%, the inhibition at 10 µM [2] was over 79% and the inhibition at 10 µM [3] was over 79%. The inhibition at 10 µM [4] was over 79%, the inhibition at 10 µM [5] was over 79% and the inhibition at 10 µM [6] was over 79%.
In the case of `Clc1cncc(Cl)c1N1CCN(c2nc3c4c(n[nH]c4n2)CCN3Cc2ccccc2)CC1` [Compound 85, 6-benzyl-4-[4-(3,5-dichloropyridin-4-yl)piperazin-1-yl]-2,6,7,8-tetrahydro-1,2,3,5,6-pentaazaacenaphthylene], the inhibition at 10 µM [1] is reported as under 50%, the inhibition at 10 µM [2] is reported as under 50% and the inhibition at 10 µM [3] is reported as 50 to 79%. The inhibition at 10 µM [4] was under 50%, the inhibition at 10 µM [5] was over 79% and the inhibition at 10 µM [6] was under 50%.
Compound `Cc1ccc(C)c(CCNc2nc3c4c(n[nH]c4n2)CCN3Cc2ccccc2)c1` [Compound 86, 6-benzyl-N-[2-(2,5-dimethylphenyl)ethyl]-2,6,7,8-tetrahydro-1,2,3,5,6-pentaazaacenaphthylen-4-amine] has an inhibition at 10 µM [1] of under 50%, an inhibition at 10 µM [2] of 50 to 79% and an inhibition at 10 µM [3] of under 50%. The inhibition at 10 µM [4] was 50 to 79%, the inhibition at 10 µM [5] was under 50% and the inhibition at 10 µM [6] was under 50%.
With `Cc1ccccc1CCNc1nc2c3c(n[nH]c3n1)CCN2Cc1ccccc1` [Compound 87, 6-benzyl-N-[2-(2-methylphenyl)ethyl]-2,6,7,8-tetrahydro-1,2,3,5,6-pentaazaacenaphthylen-4-amine] the inhibition at 10 µM [1] was under 50%, the inhibition at 10 µM [2] was under 50% and the inhibition at 10 µM [3] was under 50%. The inhibition at 10 µM [4] was 50 to 79%, the inhibition at 10 µM [5] was under 50% and the inhibition at 10 µM [6] was under 50%.
